Assay results published in patent US20160213639A1, “COMPOSITIONS AND METHODS FOR TREATING NON-ALCOHOLIC STEATOHEPATITIS” (MOCHIDA PHARMACEUTICAL CO., LTD., priority 2013, published 2016).

How the values were obtained:
CYP450 = conditions: at free concentrations observed in humans; cited from earlier work
[1] = Gastric fluid levels in pylorus-ligated rats; assay type: in vivo; conditions: 3000 mg/kg oral dose
platelets = assay: Platelet anti-aggregation; assay type: cell-based; conditions: platelets from rats, rabbits and humans
[2] = Phase II NASH trial: safety analysis; assay type: in vivo, human; conditions: over the course of the study, all arms
Description: This example provides the protocol used for an ongoing phase II clinical trial, double blind, placebo-controlled study to investigate the safety, efficacy, and pharmacokinetic profile of two doses of EPA-E in subjects with NASH. Up to 70 subjects were enrolled into each treatment arm, for a total of 210 subjects to be enrolled. Block randomization using an interactive voice response system (IVRS) was used to assign patients in a 1:1:1 ratio to two active doses and placebo. Patients were stratified at randomization by presence or absence of diabetes. Patients with diabetes comprised no more than 25% of the total number of patients enrolled. Subjects were treated with 600 mg EPA-E, 900 mg EPA-E or placebo three times a day for one year. […]
The primary one-year efficacy endpoint was a composite of either a NAS <3 without worsening of fibrosis or a drop in NAS by 2 or more with contribution from more than one parameter and no worsening of fibrosis. […] This was assessed by analysis of covariance. Secondary endpoints included changes in the individual histological parameters related to NAFLD, overall NAS, liver enzymes and function, hemoglobin A1C, acute phase reactants, insulin sensitivity as measured by the homeostatic model (HOMA-IR), levels of cytokeratin 18 (CK18), hyaluronic acid, type IV collagen (7S domain), procollagen III peptide and key cytokines. […]

[3] = test system: galactosamine-induced steatohepatitis mouse model; assay: Galactosamine-induced steatohepatitis mouse model; assay type: in vivo; conditions: oral administration at 1000 mg/kg; by suppressing triglyceride accumulation
[4] = test system: diet-induced hepatic steatosis model; assay: Mouse diet-induced hepatic steatosis model; assay type: in vivo; conditions: repeat oral administration at >0.1 mg/g
Elasticity of arteries = assay type: in vivo; conditions: rabbits
[5] = test system: methionine-choline deficient diet rat model of nonalcoholic steatohepatitis; assay: Methionine-choline deficient diet rat model of nonalcoholic steatohepatitis; assay type: in vivo; conditions: repeat oral administration at 1000 mg/kg
NASH [6] = assay: Phase II NASH trial: liver histology (NAS, steatosis, ballooning, inflammation, fibrosis); assay type: in vivo, human; conditions: for subjects who met the primary endpoint: 12 months, p=ns vs placebo (20); for mean decrease in NAS: placebo 0.9, p=n.s.; for subjects with a decrease in NAS by more than 2 points: placebo sixteen, p=n.s.
Description: (§1) This example provides the protocol used for an ongoing phase II clinical trial, double blind, placebo-controlled study to investigate the safety, efficacy, and pharmacokinetic profile of two doses of EPA-E in subjects with NASH. Up to 70 subjects were enrolled into each treatment arm, for a total of 210 subjects to be enrolled. Block randomization using an interactive voice response system (IVRS) was used to assign patients in a 1:1:1 ratio to two active doses and placebo. Patients were stratified at randomization by presence or absence of diabetes. Patients with diabetes comprised no more than 25% of the total number of patients enrolled. Subjects were treated with 600 mg EPA-E, 900 mg EPA-E or placebo three times a day for one year.
In order to support the trial, EPA-E capsules and matching placebo capsules were prepared. EPA-E capsule is an oval soft gelatin capsule containing 300 mg of EPA-E as an active ingredient. […] These capsules are unidentifiable as EPA-E capsules or placebo capsules.
Subjects were administered orally 3 capsules 3 times daily, immediately after meals.
Adult subjects with biopsy-confirmed NASH within six months prior to randomization or those with suspected NASH were screened for the study. […] The histology was assessed using the NASH CRN criteria. The histological entry criteria included (1) the presence of possible or definite steatohepatitis, and (2) a NAFLD activity score (NAS) ≧4 with a minimum score of 1 each for steatosis and inflammation plus either ballooning or at least stage 1a sinusoidal fibrosis. The nonalcoholic nature of the disease was defined by a history of consumption of less than 3 drinks daily (approximately 10 gm alcohol/drink) for the previous 5 years. Those who exceeded these limits at the time of randomization or for more than 3 consecutive months within the five year time frame were excluded.
The liver biopsies from subjects being considered for the trial were sent to a central pathology laboratory where they were read and scored. A total of 4 pathologists with experience in liver histopathology reviewed the biopsies. All the pathologists underwent a training session conducted by the lead pathologist (OWC) prior to the study. After slide quality assessment, the cases were randomly assigned to 2 reviewers who scored fatty change, lobular inflammation, hepatocyte ballooning and fibrosis as previously described. If there was a discrepancy between any of these evaluations, a third randomly assigned reviewer agreed with one of the choices thereby producing a single concordant NAS and fibrosis score for the biopsy.
(§2) Following confirmation of eligibility based on both inclusion and exclusion criteria, subjects were randomized to receive placebo or one of two doses of EPA-E (1800 mg/day or 2700 mg/day) in three divided doses daily. Block randomization using an interactive voice response system was used to assign subjects in a 1:1:1 ratio between the three arms. Subjects were stratified by the presence of diabetes, impaired glucose tolerance or metabolic syndrome on stable doses of medication. The total fraction of such individuals was capped at 40% of the study cohort.
(§3) All subjects were followed according to a predefined clinic schedule. Data from unscheduled visits were collected in separate forms. Following twelve months of treatment, all subjects underwent a protocol-driven liver biopsy. Study drug was then discontinued.
The primary one-year efficacy endpoint was a composite of either a NAS <3 without worsening of fibrosis or a drop in NAS by 2 or more with contribution from more than one parameter and no worsening of fibrosis. The proportions of subjects meeting this endpoint after 12 months of treatment in those receiving EPA-E were compared to those receiving placebo using the Cochrane-Armitage trend test. A short-term efficacy endpoint was changes from baseline in alanine aminotransferase at 3 and 6 months. This was assessed by analysis of covariance. […]

[7] = Safety pharmacology studies; assay type: in vivo; conditions: oral doses up to 3000 mg/kg
[8] = Lipid lowering in animal models; assay type: in vivo; conditions: rats, hamsters and rabbits
NASH [9] = assay: Phase II NASH trial: laboratory parameters and circulating markers; assay type: in vivo, human
Description: as §1, §2, §3
The primary one-year efficacy endpoint was a composite of either a NAS <3 without worsening of fibrosis or a drop in NAS by 2 or more with contribution from more than one parameter and no worsening of fibrosis. The proportions of subjects meeting this endpoint after 12 months of treatment in those receiving EPA-E were compared to those receiving placebo using the Cochrane-Armitage trend test. A short-term efficacy endpoint was changes from baseline in alanine aminotransferase at 3 and 6 months. This was assessed by analysis of covariance. Secondary endpoints included changes in the individual histological parameters related to NAFLD, overall NAS, liver enzymes and function, hemoglobin A1C, acute phase reactants, insulin sensitivity as measured by the homeostatic model (HOMA-IR), levels of cytokeratin 18 (CK18), hyaluronic acid, type IV collagen (7S domain), procollagen III peptide and key cytokines. Proportions of subjects meeting categorical endpoints were compared using the Cochrane-Armitage test for trend. Numerical scores were compared using Wilcoxon 2-sample tests. Safety-related endpoints included adverse events including hematological-, biochemical-, renal- and EKG-related abnormalities. These were enumerated.

[10] = ADME of 14C-EPA-E in rats (absorption, distribution, metabolites, excretion); assay type: in vivo
Experimental: EPADEL® is a product containing ethyl all-cis-5,8,11,14,17-eicosapentaenoate (EPA-E), one of the n-3 essential fatty acids. The preclinical absorption, distribution, metabolism and excretion (ADME) characteristics of EPA-E have been determined primarily in rats.
After administration of ^14C-EPA-E into the ligated intestine of rats, the residual radioactivity in the intestine at 24 hours was only 4.6% of the administered dose. Radioactivity transferred to the plasma and lymph was mainly detected in the triglyceride (TG) fraction in the early phase after dosing, while distribution to the free fatty acid (FFA) fraction was slight at all timepoints. […] Orally administered EPA-E was primarily incorporated in adrenal gland lipids as cholesterol esters of the fatty acids eicosapentaenoic acid (EPA), docosapentaenoic acid (DPA) and docosahexaenoic acid (DHA).
(§4) Consequently, when EPA-E is administered orally to humans, it would appear that it is well absorbed, even though the unchanged ethyl ester form is not detected, and the free form (EPA) is only detected at a very low level, in the blood. Due to this absorption mechanism of essential fatty acids, the administered EPA-E exists as a blood-constituent fatty acid in the total lipids. In fact, according to the approval package document of Lovaza®, the free form of EPA is undetectable in the circulation (<1 μM) following an oral dose of 4 g of Omacor® (a mixture of the ethyl esters of EPA and DHA) Following oral administration of EPA-E, EPA, DPA and DHA were isolated and identified as metabolites in tissues and plasma. EPA, DPA and DHA were incorporated into TG and PL. Radioactivity was primarily excreted in expired air (44%) after single oral administration at 30 mg/kg EPA-E with minimal excretion in bile and urine (˜3%) and approximately 20% excreted in feces.
Renal excretion was the elimination route for several minor highly polar metabolites (<0.4%), but EPA-E, EPA, DPA or DHA were not detected in the urine. In feces, EPA-E and EPA, evidently derived from the unabsorbed drug, were detected; however, no DPA or DHA was detected in the feces.
In the total lipid fraction of the liver, the radioactivity originated mainly from EPA, DPA and DHA. Thus, it is considered that EPA, DPA and DHA are the predominant metabolites of ^14C-EPA-E in tissues, as constituent fatty acids of the total lipid fraction.

[11] = Hydrolysis in small intestine homogenates, lymph, plasma and liver homogenates; assay type: in vitro ADME; conditions: plasma and liver homogenates of the rat
[12] = set-up: species or system dogs; conditions: dog, in vivo, po, 30 mg/kg, 1 week
Experimental: as §4

[13] = single oral administration at 30 mg/kg

Structure (SMILES): CC/C=C\C/C=C\C/C=C\C/C=C\C/C=C\CCCC(=O)O [EPA, eicosapentaenoic acid]
- CYP450 inhibition (CYP450): unlikely to inhibit CYP450

Structure (SMILES): CC/C=C\C/C=C\C/C=C\C/C=C\C/C=C\CCCC(=O)OCC [EPA-E, ethyl all-cis-5,8,11,14,17-eicosapentaenoate]
- gastric fluid levels [1]: reduction in gastric fluid levels
- effects on platelets (platelets): anti-aggregation effects
- deaths [2]: No deaths occurred
- progression of steatohepatitis [3]: retarded progression of steatohepatitis
- fat accumulation [4]: suppressed fat accumulation
- hepatic SREBP-1c levels [4]: suppressing hepatic SREBP-1c levels
- elasticity of arteries (Elasticity of arteries): preserve the elasticity of arteries
- fibrosis [5]: inhibited fibrosis
- distribution of fibrosis scores (NASH [6]; any of the treatment arms, over the duration of the study): no significant changes in the distribution of fibrosis scores
- steatosis grade (NASH [6]; cohort as a whole, low dose and high dose, efficacy evaluable dataset): Neither low dose-nor high dose-EPA-E affected the steatosis grade significantly
- subjects who met the primary endpoint (NASH [6]; high dose EPA-E (2700 mg/day)): 22 subjects
- mean decrease in NAS (NASH [6]; high dose EPA-E (2700 mg/day)): 0.8
- subjects with a decrease in NAS by more than 2 points (NASH [6]; high dose EPA-E (2700 mg/day)): 18 subjects
- subjects who met the primary endpoint (NASH [6]; low dose EPA-E (1800 mg/day)): 19 subjects
- mean decrease in NAS (NASH [6]; low dose EPA-E (1800 mg/day)): 1
- subjects with a decrease in NAS by more than 2 points (NASH [6]; low dose EPA-E (1800 mg/day)): 16 subjects
- cytological ballooning and lobular inflammation scores (NASH [6]; low dose and high dose, efficacy evaluable dataset): not significantly altered
- increased likelihood of beneficial impact on overall NAS score (NASH [6]; women <50, 1800 mg/day vs placebo, adjusted, p<0.03): 10 fold
- increased likelihood of beneficial impact on steatosis grade (NASH [6]; women <50, 1800 mg/day vs placebo, adjusted, p<0.04): 8 fold
- increased likelihood of beneficial impact on overall NAS score (NASH [6]; women <50, 2700 mg/day vs placebo, adjusted, p<0.04): 7 fold
- odds ratio, beneficial impact in steatosis (NASH [6]; women under 50 years of age, low dose EPA-E vs placebo, adjusted for baseline histology, BMI and changes in BMI, p=0.03): 7.9
- odds ratio, beneficial impact in overall NAS (NASH [6]; women under 50 years of age, low dose EPA-E vs placebo, adjusted, p=0.02): 10.5
- odds ratio, beneficial impact in overall NAS (NASH [6]; women under 50 years of age, second value (dose group not given), adjusted, p=0.03): 6.8
- effect on central nervous, autonomic nervous, respiratory and cardiovascular systems [7]: no effect on the central nervous, autonomic nervous, respiratory and cardiovascular systems
- lipids [8]: lower lipids
- body mass index (NASH [9]; across groups): remained similar across groups
- AST, ALT or GGT (NASH [9]; baseline to end of study, FIG. 8): no significant changes
- HgbA1C or circulating fasting insulin concentrations (NASH [9]; either active treatment arm compared to placebo): no significant changes
- change in serum triglycerides (NASH [9]; high dose EPA-E, placebo 11.5±50.9, p<0.05, Wilcoxon rank sum test): −4.9±116.0
- change in serum ALT (NASH [9]; high dose EPA-E, placebo −24.1±48.3, p<0.05, Wilcoxon rank sum test): −3.2±51.5
- hepatic synthetic functions (NASH [9]; over the course of the study): did not change over the course of the study and remained stable
- radioactivity excreted in expired air ([10]; rat, in vivo, po, 30 mg/kg): 44%
- radioactivity excreted in bile and urine [10, 13]: ~3%
- radioactivity excreted in feces [10, 13]: approximately 20%

Structure (SMILES): CC/C=C\C/C=C\C/C=C\C/C=C\C/C=C\CCCC(=O)OCC [^14C-EPA-E]
- hydrolysis [11]: hydrolyzed rapidly
- radioactivity excreted in the urine [12]: 1.0%
- radioactivity recovered in the feces [12]: 19.2%
- residual radioactivity in the intestine ([10]; administration into the ligated intestine of rats, at 24 hours): 4.6 % of the administered dose
- unchanged EPA-E in plasma or tissues ([10]; oral administration to the rat): no unchanged EPA-E was found
- metabolites in the total lipid fraction of plasma and tissues ([10]; oral administration to the rat, liver, fat, heart and brain): EPA, DPA and DHA were detected as metabolites
- distribution of radioactivity in body tissues ([10]; rats): relatively high levels were observed especially in the brown fat, adrenal, liver and pancreas
- absorption ([10]; single oral dose 30-1000 mg/kg, rats): well-absorbed, mainly through the lymphatic route
